Like-named read-outs stand apart in the source and are kept apart here.
What was measured:
[1] = biological target: T1, wild type HCV NS3/4A 1b protease enzyme (Hepatitis C virus genotype 1b, UniProt P26663); assay: biochemical; assay type: biochemical; conditions: read-out: Inhibition, WT; WT enzyme, FRET assay
T1 construct: 10× stocks of NS3/4A protease enzyme from Bioenza (Mountain View, Calif.); purchased Bioenza (Mountain View, Calif.)
Method: (§1) HCV Protease FRET Assay for Wild Type and Mutated NS3/4A 1b Enzymes (IC50)
(§2) Protease reactions were started with the addition of 45 μL of the FRET substrate and monitored for 120 minutes at λex487/λem514 through Quad^4 monochromoters in a Synergy^4 plate reader from BioTek (Winooski, Vt.). At the conclusion of each assay, progress curves from each well were examined for linear reaction kinetics and fit statistics (R^2, absolute sum of squares).
(§3) The compound numbers correspond to the compound numbers in Table 3.

[2] = biological target: T2, A156T mutant of the HCV NS3/4A 1b protease enzyme (Hepatitis C virus genotype 1b, UniProt P26663, A1182T); assay: HCV Protease FRET Assay (IC50), A156T mutant; assay type: biochemical; conditions: read-out: Inhibition, HCV A156T; A156T enzyme, FRET assay
T2 construct: 10× stocks of NS3/4A protease enzyme from Bioenza (Mountain View, Calif.); purchased Bioenza (Mountain View, Calif.)
Method: as §1
The protocol is a modified FRET-based assay (v—02) from In Vitro Resistance Studies of HCV Serine Protease Inhibitors, 2004, JBC, vol. 279, No. 17, pp 17508-17514.
10× stocks of NS3/4A protease enzyme from Bioenza (Mountain View, Calif.) and 1.13× 5-FAM/QXL™ 520 FRET peptide substrate from Anaspec (San Jose, Calif.) were prepared in 50 mM HEPES, pH 7.8, 100 mM NaCl, 5 mM DTT and 20% glycerol. 5 μL of each enzyme were pre-incubated in a Corning (#3573) 384-well, black, non-treated microtiter plate (Corning, N.Y.) for 30 min at 25° C. with a 0.5 μL volume of 50% DMSO and serially diluted compounds prepared in 50% DMSO. Protease reactions were started with the addition of 45 μL of the FRET substrate and monitored for 120 minutes at λex487/λem514 through Quad^4 monochromoters in a Synergy^4 plate reader from BioTek (Winooski, Vt.). At the conclusion of each assay, progress curves from each well were examined for linear reaction kinetics and fit statistics (R^2, absolute sum of squares). Initial velocity (0 minutes to 30+ minutes) from each reaction was determined from the slope of a plot of relative fluorescence units vs time (minutes) and then plotted against inhibitor concentration to estimate IC50 from log[Inhibitor] vs Response, Variable Slope model in GraphPad Prism from GraphPad Software (San Diego, Calif.).
The compound numbers correspond to the compound numbers in Table 3. […] ;

[3] = biological target: T3, D168A mutant of the HCV NS3/4A 1b protease enzyme (Hepatitis C virus genotype 1b, UniProt P26663, D1194A); assay: HCV Protease FRET Assay (IC50), D168A mutant; assay type: biochemical; conditions: read-out: Inhibition, HCV D168A; D168A enzyme, FRET assay
T3 construct: 10× stocks of NS3/4A protease enzyme from Bioenza (Mountain View, Calif.); purchased Bioenza (Mountain View, Calif.)
Method: as §1, §2, §3

[4] = test system: HCV RNA replicon in cell line ET (luc-ubi-neo/ET), human Huh7 hepatoma; assay: Method A: HCV RNA replicon antiviral assay (luciferase, ET cell line); assay type: cell-based, Hepatitis C virus; conditions: Hepatitis C virus, Huh-7
How it was run: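 ET replicon cells (Huh7 carrying luciferase-reporter HCV replicon) plated at 5×10^3 cells/well and exposed 72 hr to six 3-fold drug concentrations in DMEM/5% FBS. Replicon luciferase gave EC50/EC90; CytoTox-1 cell counts gave IC50 (viability); […]. Interferon alpha-2b served as positive control.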

[5] = test system: cell line ET (luc-ubi-neo/ET), human Huh7 hepatoma cell line; assay: Method A: cytotoxicity in ET replicon cells (CytoTox-1); assay type: cell-based; conditions: concentration decreasing cell viability by 50%, 72 hr
Method: The compounds were assayed to evaluate the antiviral activity and cytotoxicity of compounds in vitro using HCV RNA replicons. This assay used the cell line ET (luc-ubi-neo/ET), which is a human Huh7 hepatoma cell line that contains an HCV RNA replicon with a stable luciferase (Luc) reporter and three cell culture-adaptive mutations. […]
The ET cell line was grown in Dulbecco's modified essential media (DMEM), 10% fetal bovine serum (FBS), 1% penicillin-streptomycin (pen-strep), 1% glutamine, 250 μg/ml G418 in a 5% CO2 incubator at 37° C. All cell culture reagents were obtained from Mediatech (Manassas, Va.). Cells were trypsinized (1% trypsin:EDTA) and plated out at 5×10^3 cells/well in white 96-well assay plates (Costar) dedicated to cell number (cytotoxicity) or antiviral activity assessments. Drugs were added at six 3-fold concentrations each and the assay was run in DMEM, 5% FBS, 1% pen-strep, 1% glutamine. Human interferon alpha-2b (PBL Biolabs, New Brunswick, N.J.) was included in each run as a positive control compound. Cells were processed 72 hr post drug addition when the cells are still subconfluent. Antiviral activity was measured by analyzing replicon-derived luciferase activity using the Steady-Glo Luciferase Assay System (Promega, Madison, Wis.) according to manufacturer's instruction. The number of cells in each well was determined by CytoTox-1 reagent (Promega). […].

[6] = biological target: T1, wild type HCV NS3/4A 1b protease enzyme; assay: HCV Protease FRET Assay (IC50_APP), wild type; assay type: biochemical; conditions: read-out: IC50_APP, WT; apparent IC50, wild type NS3/4A 1b
[7] = biological target: T2, A156T mutant of the HCV NS3/4A 1b protease enzyme; assay: HCV Protease FRET Assay (IC50_APP), A156T mutant; assay type: biochemical; conditions: apparent IC50, A156T mutant; read-out: IC50_APP, HCV A156T
[8] = biological target: T3, D168A mutant of the HCV NS3/4A 1b protease enzyme; assay: HCV Protease FRET Assay (IC50_APP), D168A mutant; assay type: biochemical; conditions: apparent IC50, D168A mutant; read-out: IC50_APP, HCV D168A
[9] = Replicon, assay of Example 22, 72 hr, read-out: Inhibition, Replicon
[10] = assay described in Example 22, read-out: Replicon (IC50)

C=C[C@@H]1C[C@]1(NC(=O)[C@@H]1C[C@@H](Oc2cc(-c3ccccc3)nc3cc(OC)ccc23)CN1C(=O)[C@H](CNC(=O)/C=C/CN(C)C)NC(=O)OC(C)(C)C)C(=O)NS(=O)(=O)c1ccccc1 [Compound I-5, N-[(1,1-dimethylethoxy)carbonyl]-3-[(4-dimethylamino-2-butenoyl)amino]-L-alanyl-(4R)-4-[(7-methoxy-2-phenyl-4-quinolinyl)oxy]-L-prolyl-1-amino-2-ethenyl-N-(phenylsulfonyl)-(1R,2S)-cyclopropanecarboxamide]
IC50 [1]: < 10 nM | IC50 [2]: 1000 to 10000 nM | IC50 [3]: 1000 to 10000 nM | IC50 [4, 9]: 1000 to 10000 nM | Inhibition, Cytotoxicity [5]: E (IC50≧10,000 nM)

C=C[C@@H]1C[C@]1(NC(=O)[C@@H]1C[C@@H](Oc2cc(-c3ccccc3)nc3cc(OC)ccc23)CN1C(=O)C1(NC(=O)OC(C)(C)C)CCN(C(=O)CCl)CC1)C(=O)NS(=O)(=O)c1ccccc1 [Compound I-25, tert-butyl-1-(2-chloroacetyl)-4-((2S,4R)-4-(7-methoxy-2-phenylquinolin-4-yloxy)-2-((1R,2S)-1-(phenylsulfonylcarbamoyl)-2-vinylcyclopropylcarbamoyl)pyrrolidine-1-carbonyl)piperidin-4-ylcarbamate]
IC50 [1]: < 10 nM | IC50 [3]: 10 to 100 nM | IC50 [4, 9]: > 10000 nM | Inhibition, Cytotoxicity [5]: C (IC50>100 nM and ≦1000 nM)

C=CC(=O)N1CCC(NC(=O)OC(C)(C)C)(C(=O)N2C[C@H](Oc3cc(-c4ccccc4)nc4cc(OC)ccc34)C[C@H]2C(=O)N[C@]2(C(=O)NS(=O)(=O)c3ccccc3)C[C@H]2C=C)CC1 [Compound I-26, tert-butyl-1-acryloyl-4-((2S,4R)-4-(7-methoxy-2-phenylquinolin-4-yloxy)-2-((1R,2S)-1-(phenylsulfonylcarbamoyl)-2-vinylcyclopropylcarbamoyl)pyrrolidine-1-carbonyl)piperidin-4-ylcarbamate]
IC50 [1]: < 10 nM | IC50 [3]: 100 to 1000 nM | IC50 [4, 9]: > 10000 nM | Inhibition, Cytotoxicity [5]: E (IC50≧10,000 nM)

C=C[C@@H]1C[C@]1(NC(=O)[C@@H]1C[C@@H](Oc2cc(-c3ccccc3)nc3cc(OC)ccc23)CN1C(=O)[C@H](CN(C)C(=O)/C=C/CN(C)C)NC(=O)OC(C)(C)C)C(=O)NS(=O)(=O)c1ccccc1 [Compound I-30, tert-butyl-(S)-3-((E)-4-(dimethylamino)-N-methylbut-2-enamido)-1-((2S,4R)-4-(7-methoxy-2-phenylquinolin-4-yloxy)-2-((1R,2S)-1-(phenylsulfonylcarbamoyl)-2-vinylcyclopropylcarbamoyl)pyrrolidin-1-yl)-1-oxopropan-2-ylcarbamate]
IC50 [1]: < 10 nM | IC50 [3]: 100 to 1000 nM | IC90 ([4]; assay described in Example 22): 100 to 1000 nM | IC50 [4, 9]: 10 to 100 nM | IC50 [4, 10]: 10 to 100 nM | Inhibition, Cytotoxicity [5]: E (IC50≧10,000 nM) | IC50 [6]: 10 to 100 nM | IC50 [7]: 1000 to 10000 nM | IC50 [8]: 1000 to 10000 nM

C=C[C@@H]1C[C@]1(NC(=O)[C@@H]1C[C@@H](Oc2cc(-c3ccccc3)nc3cc(OC)ccc23)CN1C(=O)[C@H](CN(C)C(=O)C(=C)C)NC(=O)OC(C)(C)C)C(=O)NS(=O)(=O)c1ccccc1 [Compound I-32, tert-butyl-(S)-1-((2S,4R)-4-(7-methoxy-2-phenylquinolin-4-yloxy)-2-((1R,2S)-1-(phenylsulfonylcarbamoyl)-2-vinylcyclopropylcarbamoyl)pyrrolidin-1-yl)-3-(N-methylmethacrylamido)-1-oxopropan-2-ylcarbamate]
IC50 [1]: < 10 nM | IC50 [3]: 1000 to 10000 nM | IC50 [4, 9]: 100 to 1000 nM | Inhibition, Cytotoxicity [5]: E (IC50≧10,000 nM)

C=CC(=O)NC[C@H](NC(=O)OC(C)(C)C)C(=O)N1C[C@H](Oc2cc(-c3ccccc3)nc3cc(OC)ccc23)C[C@H]1C(=O)N[C@]1(C(=O)O)C[C@H]1C=C [Compound I-41, (1R,2S)-1-((2S,4R)-1-((S)-3-acrylamido-2-(tert-butoxycarbonylamino)propanoyl)-4-(7-methoxy-2-phenylquinolin-4-yloxy)pyrrolidine-2-carboxamido)-2-vinylcyclopropanecarboxylic acid]
IC50 [1]: 10 to 100 nM | IC50 [3]: 1000 to 10000 nM | IC50 [4, 9]: > 10000 nM | Inhibition, Cytotoxicity [5]: E (IC50≧10,000 nM)

C#CCN(C)C(=O)CCCC(=O)N[C@@H](CNC(=O)C=C)C(=O)N1C[C@H](Oc2cc(-c3ccccc3)nc3cc(OC)ccc23)C[C@H]1C(=O)N[C@]1(C(=O)NS(=O)(=O)c2ccccc2)C[C@H]1C=C [Compound I-42]
IC50 [1]: < 10 nM | IC50 [2]: 100 to 1000 nM | IC90 ([4]; assay described in Example 22): > 10000 nM | IC50 [4, 9]: > 10000 nM | IC50 [4, 10]: > 10000 nM | Inhibition, Cytotoxicity [5]: E (IC50≧10,000 nM) | IC50 [6]: 10 to 100 nM | IC50 [8]: 100 to 1000 nM

C=C[C@@H]1C[C@]1(NC(=O)[C@@H]1C[C@@H](Oc2cc(-c3ccccc3)nc3cc(OC)ccc23)CN1C(=O)CNC(=O)/C=C/C)C(=O)NS(=O)(=O)c1ccccc1 [Compound I-47, (2S,4R)-1-(2-(E)-but-2-enamidoacetyl)-4-(7-methoxy-2-phenylquinolin-4-yloxy)-N-((1R,2S)-1-(phenylsulfonylcarbamoyl)-2-vinylcyclopropyl)pyrrolidine-2-carboxamide]
IC50 [1]: 10 to 100 nM | IC50 [3]: 1000 to 10000 nM | IC50 [4, 9]: 1000 to 10000 nM | Inhibition, Cytotoxicity [5]: E (IC50≧10,000 nM)

C=C[C@@H]1C[C@]1(NC(=O)[C@@H]1C[C@@H](Oc2cc(-c3ccccc3)nc3cc(OC)ccc23)CN1C(=O)CNC(=O)C#CC)C(=O)NS(=O)(=O)C1CC1 [Compound I-48, (2S,4R)-1-(2-but-2-ynamidoacetyl)-N-((1R,2S)-1-(cyclopropylsulfonylcarbamoyl)-2-vinylcyclopropyl)-4-(7-methoxy-2-phenylquinolin-4-yloxy)pyrrolidine-2-carboxamide]
IC50 [1]: 10 to 100 nM | IC50 [3]: 1000 to 10000 nM | IC50 [4, 9]: 1000 to 10000 nM | Inhibition, Cytotoxicity [5]: E (IC50≧10,000 nM)
